Measurements reported in patent US11752162B2, “Compounds and compositions for treating solid tumors by intratumoral administration” (Novartis AG, priority 2017, dated 2023).

What was measured:
[1] = in vivo; settings: male, Wistar, rat, iv, 1 mg/kg
Protocol: Note: The pharmacokinetic properties of Compound 15 in 50 mM Tris/0.9% NaCl (pH 7.4) were examined in male Wistar rats following a single 1 mg/kg intravenous bolus administration.

[2] = Wistar rat subcutaneous PK, fixed aluminum hydroxide 5 mg/mL (Example 10); type: in vivo
Protocol: The pharmacokinetic properties of Compound 15 were examined in naïve male Wistar rats following: • a) a single 200 μL subcutaneous (s.c.) injection of 600 μg of free form Compound 15 in 100 mM Tris buffer pH 7.4; • b) a single 200 μL subcutaneous (s.c.) injection of 50 μg of Compound 15 adsorbed to aluminum hydroxide at a 1:20 ratio (w/w) of Compound 15 to aluminum hydroxide-Suspension G described below; • and • c) a single 200 μL subcutaneous (s.c.) injection of 600 μg of Compound 15 adsorbed to aluminum hydroxide at a 1:1.7 ratio (w/w) of Compound 15 to aluminum hydroxide-Suspension F described below.
The systemic concentration of Compound 15 was evaluated following a single 200 μL subcutaneous injection of two different dose levels of Compound 15 adsorbed to aluminum hydroxide, where the aluminum hydroxide was at a fixed dose concentration of 5 mg/mL.
In this study, two groups male Wistar rats (n=3 per group) were injected subcutaneously (s.c.) with either 50 μg or 600 μg of Compound 15 absorbed to aluminum hydroxide. An injection volume of 200 μL of Suspension G and Suspension F was used to obtain 50 and 600 μg of Compound 15 absorbed to aluminum hydroxide, respectively. The injection volume of 200 μL per rat was not normalized to body weights of the rats. As described above the Compound 15/aluminum hydroxide ratio for Suspension F was 1:1.7 w/w, while for Suspension G it was 1:20 w/w.
Blood samples (˜100 μL each) were taken serially via saphenous bleed from each rat until 168 h post dose (see Table 9 for sampling schedule). Blood samples were centrifuged to separate plasma and the plasma samples were frozen at −20° C. prior to analysis using LC/MS/MS (as described in Example 5) to obtain the systemic concentrations of Compound 15.

[3] = system: MC38 tumors; test: Contralateral MC38 colon cancer model, alone or with checkpoint inhibitors; type: in vivo, mouse; settings: Compound 15 alone, without aluminum hydroxide, 50 μg i.t.
Protocol: MC38 cells were grown in sterile conditions in a 37° C. incubator with 5% CO2 for two weeks. The cells were cultured in Dulbecco's Modified Eagle's medium (DMEM) media supplemented with 10% FBS, cells were passed every 2-3 days. On the day of injection, cells were harvested (Passage 12) and re-suspended in Hanks' Balanced Salt Solution (HBSS) at a concentration of 2.5×10^6/ml. Cells were Radil tested for mycoplasma and murine viruses.
For each mouse, 0.25×10^6 cells were implanted with subcutaneously injection into right flank using a 28½ g needle ([…]). After the first implantation on day 3 (0.25×10^6) cells are implanted with a subcutaneous injection into left flank using a 28½ g needle (100 μL injection volume). Tumor sizes were assessed three times a week once tumors were palpable. Tumor sizes were determined by using caliper measurements, with tumor volumes calculated using the formula: (Length×Width×Width)/2.
Female C57BL/6 mice bearing the MC38 tumors were randomized into 7 groups (n=9 mice per group) 9 days post tumor cell implantation with an average tumor volume range of 69.09-142.25 mm^3, and the separate groups of tumor bearing mice received treatment as shown in Table 17.
The anti-tumor efficacy of Compound 15 adsorbed to aluminum hydroxide (Alhydrogel®) alone or in combination with checkpoint inhibitors, was determined using a contralateral MC38 colon cancer model. The tumor volume was obtained after two weekly intratumoral injections of Compound 15 adsorbed to aluminum hydroxide (50 μg each) either alone (Group 2), in a double combination with intraperitoneal injection (twice weekly) of an anti-PD-L1 antibody (10 mg/kg) (Group 5), in a double combination with intraperitoneal injection (twice weekly) of an anti-CTLA4 antibody (10 mg/kg) (Group 6), or in a triple combination with intraperitoneal injection (twice weekly) of an anti-PD-L1 antibody (10 mg/kg) and with intraperitoneal injection of an anti-CTLA4 antibody (10 mg/kg) (group 7). For comparison, data was obtained after an intraperitoneal injection (twice weekly) of the anti-PD-L1 antibody (10 mg/kg) alone (Group 3) and after an intraperitoneal injection (twice weekly) of the anti-CTLA4 antibody (10 mg/kg) alone (Group 4). The untreated control data was also obtained (Group 1).
The anti-tumor efficacy of Compound 15 alone (without aluminum hydroxide (Alhydrogel®)) or in combination with checkpoint inhibitors was determined using a contralateral MC38 colon cancer model. […] In addition, the anti-tumor efficacy of Compound 15 adsorbed to aluminum hydroxide (Alhydrogel®) alone or in a triple combination with checkpoint inhibitors was determined using a contralateral MC38 colon cancer model. […]

[4] = female, C57/BL6, mouse, in vivo, iv, 2 mg/kg
[5] = in vivo; settings: female, C57/BL6, mouse, iv, 2 mg/kg
[6] = rat, sc, 600 ug, 600 μg Compound 15 s.c., male Wistar rats, plasma, Table 15 (free compound data from Example 9)

MRT [1]: 12 min
half-life [1]: 72 min
clearance ([1]; pH 7.4): 9.2 mL/min/kg
retention of Compound 15 at the local injection site ([2]; adsorbed onto aluminum hydroxide, following subcutaneous injection, rats): up to 1 week
AUC(0-inf) [2, 6]: 2560 ng·h/mL
Cmax [2, 6]: 3660 ng/mL
Tmax [2, 6]: 15 min
half-life [2, 6]: 126 min
plasma clearance as % of mouse liver blood flow [4]: ~20%
MRT [5]: 10.2 min
clearance [5]: 18.1 mL/min/kg
half-life [5]: 60 min
SMILES: Cc1cc(OCCOCCC(F)(F)P(=O)(O)O)ccc1CCc1cnc2c(N)nc3cc(CCC(=O)O)ccc3c2c1 [Compound 15, 3-(5-amino-2-(4-(2-(3,3-difluoro-3-phosphonopropoxy)ethoxy)-2-methylphenethyl)benzo[f][1,7]naphthyridin-8-yl)propanoic acid]
difference from the no treatment group, contralateral tumor site [3]: did not show a difference from the no treatment group
difference from the no treatment group, primary injection site [3]: did not show a difference from the no treatment group
